In patent US11439618B2, “Compositions and methods for lowering triglycerides” (Amarin Pharmaceuticals Ireland Limited, priority 2009, dated 2022):

Assay: Essential fatty acid (EFA) parameters in plasma and RBC, gas chromatography of fatty acid methyl esters
Format: in vivo, human
Protocol: Blood samples (10 mL) were collected at Visit 1 (screening) and at Visits 4, 5 and 6. Analysis was performed by MSR Lipid Analysis, Scottish Crop Research Institute, Dundee, UK. The screening sample acted as baseline for the EFA measurements. Lipid was extracted from plasma, serum and RBC suspensions and converted into fatty acid methyl esters which were analyzed by gas chromatography to give fatty acid profiles as micrograms fatty acid per gram of sample (μgFA/g) and normalized area percent.
RBC and plasma EFA data were collected at baseline, Day 14, 28 and 42 and summarized by visit for each treatment group. Change from baseline and percent change from baseline were also summarized. ANCOVA comparison of ethyl-EPA dose groups and ethyl-EPA versus placebo was performed.
Notable changes for these parameters occurred in the ethyl-EPA treatment groups at Days 14, 28 and 42 compared to placebo.

Q: Which “AA Mean at Baseline” value (RBC, 1 g daily group, Baseline) does the source give for `CC/C=C\C/C=C\C/C=C\C/C=C\C/C=C\CCCC(=O)OCC` [Ethyl-EPA, all-cis eicosa-5,8,11,14,17-pentaenoic acid ethyl ester] here?
A: The value was 171.2 µg/g.

Q: What about the “DGLA Mean at Baseline” value (RBC, 1 g daily group, Baseline) of the same compound?
A: The value was 23.0 µg/g.

Q: What about the “DHA Mean at Baseline” value (RBC, 1 g daily group, Baseline) of the same compound?
A: Its value is 66.5 µg/g.

Q: What about the “DPAn-3 Mean at Baseline” value (RBC, 1 g daily group, Baseline) of the same compound?
A: Its value is 34.1 µg/g.

Q: And the “EPA Mean at Baseline” value (RBC, 1 g daily group, Baseline)?
A: Its value is 19.8 µg/g.

Q: What about the “EPA/AA Mean (SD) at Baseline” value (RBC, 1 g daily group, Baseline) of the same compound?
A: The value was 0.1 (0.07).

Q: What about the “AA Mean change from Baseline” value (RBC, 1 g daily, Day 14) of the same compound?
A: The value was -8.1 µg/g.

Q: What about the “DGLA Mean change from Baseline” value (RBC, 1 g daily, Day 14) of the same compound?
A: Its value is -2.7 µg/g.

Q: What about the “DHA Mean change from Baseline” value (RBC, 1 g daily, Day 14) of the same compound?
A: Its value is -4.6 µg/g.

Q: And the “DPAn-3 Mean change from Baseline” value (RBC, 1 g daily, Day 14)?
A: Its value is 0.9 µg/g.

Q: And the “EPA Mean change from Baseline” value (RBC, 1 g daily, Day 14)?
A: The value was 12.3 µg/g.

Q: What about the “EPA/AA Mean (SD) change from Baseline” value (RBC, 1 g daily, Day 14) of the same compound?
A: The value was 0.1 (0.04).

Q: What about the “AA Mean change from Baseline” value (RBC, 1 g daily, Day 28) of the same compound?
A: The value was -17.0 µg/g.

Q: What about the “DGLA Mean change from Baseline” value (RBC, 1 g daily, Day 28) of the same compound?
A: The value was -3.8 µg/g.

Q: What about the “DHA Mean change from Baseline” value (RBC, 1 g daily, Day 28) of the same compound?
A: Its value is -6.4 µg/g.

Q: And the “DPAn-3 Mean change from Baseline” value (RBC, 1 g daily, Day 28)?
A: Its value is 3.3 µg/g.

Q: What about the “EPA Mean change from Baseline” value (RBC, 1 g daily, Day 28) of the same compound?
A: The value was 14.5 µg/g.

Q: What about the “EPA/AA Mean (SD) change from Baseline” value (RBC, 1 g daily, Day 28) of the same compound?
A: The value was 0.1 (0.05).

Q: What about the “AA Mean change from Baseline” value (RBC, 1 g daily, Day 42) of the same compound?
A: Its value is -14.2 µg/g.

Q: And the “DGLA Mean change from Baseline” value (RBC, 1 g daily, Day 42)?
A: Its value is -3.5 µg/g.

Q: What about the “DHA Mean change from Baseline” value (RBC, 1 g daily, Day 42) of the same compound?
A: Its value is -7.0 µg/g.

Q: What about the “DPAn-3 Mean change from Baseline” value (RBC, 1 g daily, Day 42) of the same compound?
A: Its value is 6.5 µg/g.

Q: What about the “EPA Mean change from Baseline” value (RBC, 1 g daily, Day 42) of the same compound?
A: Its value is 17.6 µg/g.

Q: What about the “EPA/AA Mean (SD) change from Baseline” value (RBC, 1 g daily, Day 42) of the same compound?
A: The value was 0.1 (0.06).

Q: What about the “AA LS Mean, 1 or 2 g versus 4 g” value (RBC, 1 g versus 4 g) of the same compound?
A: Its value is 8.4 µg/g.

Q: And the “DGLA LS Mean, 1 or 2 g versus 4 g” value (RBC, 1 g versus 4 g)?
A: Its value is 1.5 µg/g.

Q: And the “DHA LS Mean, 1 or 2 g versus 4 g” value (RBC, 1 g versus 4 g)?
A: The value was 1.0 µg/g.

Q: What about the “DPAn-3 LS Mean, 1 or 2 g versus 4 g” value (RBC, 1 g versus 4 g) of the same compound?
A: Its value is -6.2 µg/g.

Q: And the “EPA LS Mean, 1 or 2 g versus 4 g” value (RBC, 1 g versus 4 g)?
A: Its value is -24.4 µg/g.

Q: What about the “EPA/AA LS Mean, 1 or 2 g versus 4 g” value (RBC, 1 g versus 4 g) of the same compound?
A: Its value is −0.18.

Q: What about the “AA Mean at Baseline” value (RBC, 2 g daily group, Baseline) of the same compound?
A: Its value is 172.8 µg/g.

Q: And the “DGLA Mean at Baseline” value (RBC, 2 g daily group, Baseline)?
A: The value was 23.0 µg/g.

Q: And the “DHA Mean at Baseline” value (RBC, 2 g daily group, Baseline)?
A: Its value is 64.8 µg/g.

Q: What about the “DPAn-3 Mean at Baseline” value (RBC, 2 g daily group, Baseline) of the same compound?
A: Its value is 33.2 µg/g.

Q: What about the “EPA Mean at Baseline” value (RBC, 2 g daily group, Baseline) of the same compound?
A: The value was 18.9 µg/g.

Q: And the “EPA/AA Mean (SD) at Baseline” value (RBC, 2 g daily group, Baseline)?
A: Its value is 0.1 (0.06).

Q: What about the “AA Mean change from Baseline” value (RBC, 2 g daily, Day 14) of the same compound?
A: The value was -3.1 µg/g.

Q: And the “DGLA Mean change from Baseline” value (RBC, 2 g daily, Day 14)?
A: The value was -2.6 µg/g.

Q: And the “DHA Mean change from Baseline” value (RBC, 2 g daily, Day 14)?
A: The value was -2.0 µg/g.

Q: What about the “DPAn-3 Mean change from Baseline” value (RBC, 2 g daily, Day 14) of the same compound?
A: The value was 5.6 µg/g.

Q: And the “EPA Mean change from Baseline” value (RBC, 2 g daily, Day 14)?
A: The value was 26.9 µg/g.

Q: And the “EPA/AA Mean (SD) change from Baseline” value (RBC, 2 g daily, Day 14)?
A: Its value is 0.2 (0.04).

Q: And the “AA Mean change from Baseline” value (RBC, 2 g daily, Day 28)?
A: Its value is -14.1 µg/g.

Q: What about the “DGLA Mean change from Baseline” value (RBC, 2 g daily, Day 28) of the same compound?
A: Its value is -4.5 µg/g.

Q: What about the “DHA Mean change from Baseline” value (RBC, 2 g daily, Day 28) of the same compound?
A: Its value is -6.2 µg/g.

Q: And the “DPAn-3 Mean change from Baseline” value (RBC, 2 g daily, Day 28)?
A: The value was 9.4 µg/g.

Q: And the “EPA Mean change from Baseline” value (RBC, 2 g daily, Day 28)?
A: The value was 32.9 µg/g.

Q: What about the “EPA/AA Mean (SD) change from Baseline” value (RBC, 2 g daily, Day 28) of the same compound?
A: The value was 0.02 (0.06).

Q: What about the “AA Mean change from Baseline” value (RBC, 2 g daily, Day 42) of the same compound?
A: Its value is -18.8 µg/g.

Q: And the “DGLA Mean change from Baseline” value (RBC, 2 g daily, Day 42)?
A: The value was -5.3 µg/g.

Q: And the “DHA Mean change from Baseline” value (RBC, 2 g daily, Day 42)?
A: The value was -6.3 µg/g.

Q: And the “DPAn-3 Mean change from Baseline” value (RBC, 2 g daily, Day 42)?
A: The value was 13.2 µg/g.

Q: What about the “EPA Mean change from Baseline” value (RBC, 2 g daily, Day 42) of the same compound?
A: The value was 38.3 µg/g.

Q: What about the “EPA/AA Mean (SD) change from Baseline” value (RBC, 2 g daily, Day 42) of the same compound?
A: Its value is 0.3 (0.06).

Q: And the “AA LS Mean, 1 or 2 g versus 4 g” value (RBC, 2 g versus 4 g)?
A: Its value is 9.8 µg/g.

Q: What about the “DGLA LS Mean, 1 or 2 g versus 4 g” value (RBC, 2 g versus 4 g) of the same compound?
A: The value was 1.5 µg/g.

Q: What about the “DHA LS Mean, 1 or 2 g versus 4 g” value (RBC, 2 g versus 4 g) of the same compound?
A: The value was 1.0 µg/g.

Q: What about the “DPAn-3 LS Mean, 1 or 2 g versus 4 g” value (RBC, 2 g versus 4 g) of the same compound?
A: Its value is -2.5 µg/g.

Q: What about the “EPA LS Mean, 1 or 2 g versus 4 g” value (RBC, 2 g versus 4 g) of the same compound?
A: Its value is -11.8 µg/g.

Q: And the “EPA/AA LS Mean, 1 or 2 g versus 4 g” value (RBC, 2 g versus 4 g)?
A: The value was −0.11.

Q: What about the “AA Mean (SD) at Baseline” value (RBC, 4 g daily group, Baseline) of the same compound?
A: Its value is 171.0 (25.17) μg/g.

Q: And the “DGLA Mean at Baseline” value (RBC, 4 g daily group, Baseline)?
A: Its value is 24.0 µg/g.

Q: And the “DHA Mean at Baseline” value (RBC, 4 g daily group, Baseline)?
A: Its value is 68.3 µg/g.

Q: And the “DPAn-3 Mean at Baseline” value (RBC, 4 g daily group, Baseline)?
A: The value was 34.5 µg/g.

Q: And the “EPA Mean at Baseline” value (RBC, 4 g daily group, Baseline)?
A: The value was 19.8 µg/g.

Q: What about the “EPA/AA Mean (SD) at Baseline” value (RBC, 4 g daily group, Baseline) of the same compound?
A: The value was 0.1 (0.04).

Q: What about the “AA Mean (SD) change from Baseline” value (RBC, 4 g daily, Day 14) of the same compound?
A: Its value is −15.7 (26.76) μg/g.

Q: And the “DGLA Mean change from Baseline” value (RBC, 4 g daily, Day 14)?
A: The value was -5.3 µg/g.

Q: What about the “DHA Mean change from Baseline” value (RBC, 4 g daily, Day 14) of the same compound?
A: Its value is -6.9 µg/g.

Q: What about the “DPAn-3 Mean change from Baseline” value (RBC, 4 g daily, Day 14) of the same compound?
A: Its value is 5.4 µg/g.

Q: And the “EPA Mean change from Baseline” value (RBC, 4 g daily, Day 14)?
A: The value was 39.5 µg/g.

Q: What about the “EPA/AA Mean (SD) change from Baseline” value (RBC, 4 g daily, Day 14) of the same compound?
A: Its value is 0.3 (0.07).

Q: What about the “AA Mean (SD) change from Baseline” value (RBC, 4 g daily, Day 28) of the same compound?
A: Its value is −22.8 (29.56) μg/g.

Q: What about the “DGLA Mean change from Baseline” value (RBC, 4 g daily, Day 28) of the same compound?
A: The value was -7.1 µg/g.

Q: And the “DHA Mean change from Baseline” value (RBC, 4 g daily, Day 28)?
A: Its value is -8.7 µg/g.

Q: What about the “DPAn-3 Mean change from Baseline” value (RBC, 4 g daily, Day 28) of the same compound?
A: The value was 12.4 µg/g.

Q: And the “EPA Mean change from Baseline” value (RBC, 4 g daily, Day 28)?
A: Its value is 50.2 µg/g.

Q: What about the “EPA/AA Mean (SD) change from Baseline” value (RBC, 4 g daily, Day 28) of the same compound?
A: The value was 0.4 (0.11).

Q: And the “AA Mean (SD) change from Baseline” value (RBC, 4 g daily, Day 42)?
A: The value was −34.4 (31.44) μg/g.

Q: What about the “DGLA Mean change from Baseline” value (RBC, 4 g daily, Day 42) of the same compound?
A: The value was -8.0 µg/g.

Q: And the “DHA Mean change from Baseline” value (RBC, 4 g daily, Day 42)?
A: The value was -13.8 µg/g.

Q: And the “DPAn-3 Mean change from Baseline” value (RBC, 4 g daily, Day 42)?
A: Its value is 16.2 µg/g.

Q: And the “EPA Mean change from Baseline” value (RBC, 4 g daily, Day 42)?
A: The value was 52.5 µg/g.

Q: And the “EPA/AA Mean (SD) change from Baseline” value (RBC, 4 g daily, Day 42)?
A: The value was 0.4 (0.14).

Q: And the “Difference in EPA, AA (RBC only), DPAn-3, DGLA (1 g only for plasma) and EPA/AA ratio levels, 4 g compared to 1 g and 2 g” value (plasma and RBC, LS means, p≤0.05)?
A: The value was “significantly (LS means, p≤0.05) different”.
